Reference: patent publication US9938258B2 (Karyopharm Therapeutics Inc., priority 2012, dated 2018)

Tests used:
3T3 cells = assay: MTT cell proliferation assay, 3T3; assay type: cell-based, mouse; conditions: Mus musculus, NIH3T3, 3T3 cells; eight concentrations 1 nM to 30 μM; incubation approximately 64-72 hours; read-out: MTT Assay IC50, 3T3
Outline: (§1)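 Read-out: MTT reduction to formazan, solubilised and measured at 490 nm after ~4 h with MTT; inhibition (%) = (1-(ODo/OD))×100 relative to negative control. Seeding was 5,000-10,000 cells/well with overnight attachment. Eight test concentrations spanned 1 nM-30 μM; mostly duplicate, mean ± SE.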

[1] = test system: MDA-MB-468 (triple negative breast) cancer xenograft; assay: MDA-MB-468 mouse xenograft model; assay type: in vivo, CB-17 SCID mice; conditions: 30 mg/kg QDx5 or 15 mg/kg QDx5 PO for 9 weeks; SCID mice with MDA-MB-468 tumors; versus vehicle
Method: The oncological impact of Compound 116 was tested using a MDA-MB-468 (triple negative breast) cancer xenograft model in CB-17 SCID mice. MDA-MB-468 (ATCC # HTB-102) breast adenocarcinoma cells were obtained from ATCC. These cells were grown in high glucose DMEM medium supplemented with 10% fetal bovine serum, 1% penicillin and streptomycin, and 2 mM L-glutamine. Cells were sub-cultured by dilution at a ratio of 1:4. MDA-MB-468 cells were harvested by trypsinization and counted using a hemocytometer. Cells were resuspended in PBS at a concentration of 4×10^8 cells per mL. Cells were placed on ice and mixed with an equal volume of Matrigel (BD Biosciences CB-40234). This mixture was kept on ice and injected into the left flank of mice in a volume of 0.2 mL, equivalent to 4×10^7 cells per mouse. When the tumors reached a mean size of between 100 and 200 mm^3, mice were randomly and prospectively divided. Tumor bearing mice were treated with vehicle or Compound 116 on M-F (QDx5/week) for 9 weeks. Compound 116 was administered orally (PO) at initial doses of 15 and 30 mg/kg five times a week. Animals' weights and condition were recorded daily, tumors were measured once every two days with micro-calipers, and tumor volume was calculated as (length×width×width)/2.

MS751 cells = assay: MTT cell proliferation assay, MS751; assay type: cell-based, human; conditions: Homo sapiens, MS751, MS751 cells; eight concentrations 1 nM to 30 μM; incubation approximately 64-72 hours; read-out: MTT Assay IC50, MS751
Outline: as §1

Z138 cells = assay: MTT cell proliferation assay, Z138; assay type: cell-based; conditions: Homo sapiens, Z-138, Z138 cells; eight concentrations 1 nM to 30 μM; incubation approximately 64-72 hours; read-out: MTT Assay IC50, Z138
Outline: as §1

MM1S cell line = assay: MTT cell proliferation assay, MM1S; assay type: cell-based; conditions: Homo sapiens, MM1.S, incubation approximately 64-72 hours
Method: (§2) The MTT cell proliferation assay was used to study the cytotoxic properties of the compounds. The assay was performed according to the method described by Roche Molecular Biochemicals, with minor modifications. The assay is based on the cleavage of the tetrazolium salt, MTT, in the presence of an electron-coupling reagent. The water-insoluble formazan salt produced must be solubilized in an additional step. Cells grown in a 96-well tissue culture plate were incubated with the MTT solution for approximately 4 hours. After this incubation period, a water-insoluble formazan dye formed. After solubilization, the formazan dye was quantitated using a scanning multi-well spectrophotometer (ELISA reader). […] The cells were seeded at 5,000-10,000 cells in each well of 96-well plate in 100 μL of fresh culture medium and were allowed to attach overnight. The stock solutions of the compounds were diluted in 100 μL cell culture medium to obtain eight concentrations of each test compound, ranging from 1 nM to 30 μM. […] All optical densities were measured at 490 nm using a Vmax Kinetic Microplate Reader (Molecular Devices). In most cases, the assay was performed in duplicate and the results were presented as a mean percent inhibition to the negative control±SE. The following formula was used to calculate the percent of inhibition: Inhibition (%)=(1-(ODo/OD)) ×100.
(§3) The M24 cell line is derived from human melanoma cells. The U2OS cell line is a human osteosarcoma cell line expressing wild type p53 and Rb, but lacking p16. The MM1S cell line is a multiple myeloma cell line; the parent cell line, MM.1, was established from peripheral blood of a multiple myeloma patient who had become resistant to steroid-based therapy. The RPMI8226 cell line is derived from human B lymphocyte cells. NHDF cells are normal human dermal fibroblast cells. The MRC-5 cell line is derived from normal lung tissue of a fetus. The LN18 cell line is a human malignant glioma cell line. The DU-145 cell line is a human prostate cancer cell line. A549 cells are human adenocarcinomic human alveolar basal epithelial cells. […]

LoVo cell line = assay: MTT cell proliferation assay, LoVo; assay type: cell-based; conditions: Homo sapiens, incubation approximately 64-72 hours
Method: as §2, with “×100. […]” for “×100.”

DLD-1 cell line = assay: MTT cell proliferation assay, DLD-1; assay type: cell-based; conditions: Homo sapiens, incubation approximately 64-72 hours
Method: as §2, with “×100. […]” for “×100.”

MDA-MB-468 cell line = assay: MTT cell proliferation assay, MDA-MB-468; assay type: cell-based; conditions: Homo sapiens, incubation approximately 64-72 hours
Method: as §2, with “×100. […]” for “×100.”

M24 cell line = assay: MTT cell proliferation assay, M24; assay type: cell-based; conditions: Homo sapiens, incubation approximately 64-72 hours
Method: as §2, with “×100. […]” for “×100.”

HCT-15 cell line = assay: MTT cell proliferation assay, HCT-15; assay type: cell-based; conditions: Homo sapiens, incubation approximately 64-72 hours
Method: as §2, with “×100. […]” for “×100.”

RPMI8226 cell line = assay: MTT cell proliferation assay, RPMI8226; assay type: cell-based; conditions: Homo sapiens, RPMI-8226, incubation approximately 64-72 hours
Method: as §2, with “×100. […]” for “×100.”

MDA-MB-231 cell line = assay: MTT cell proliferation assay, MDA-MB-231; assay type: cell-based; conditions: Homo sapiens, incubation approximately 64-72 hours
Method: as §2, with “×100. […]” for “×100.”

HEP 3B cells = assay: MTT cell proliferation assay, HEP 3B; assay type: cell-based; conditions: Homo sapiens, Hep3B, incubation approximately 64-72 hours
Method: as §2, §3

DU-145 cell line = assay: MTT cell proliferation assay, DU-145; assay type: cell-based; conditions: Homo sapiens, incubation approximately 64-72 hours
Method: as §2, with “×100. […]” for “×100.”

Colo-205 cell line = assay: MTT cell proliferation assay, Colo-205; assay type: cell-based; conditions: Homo sapiens, incubation approximately 64-72 hours
Method: as §2, with “×100. […]” for “×100.”

U2OS cell line = assay: MTT cell proliferation assay, U2OS; assay type: cell-based; conditions: Homo sapiens, incubation approximately 64-72 hours
Method: as §2, with “×100. […]” for “×100.”

NHDF cells = assay: MTT cell proliferation assay, NHDF; assay type: cell-based; conditions: Homo sapiens, incubation approximately 64-72 hours
Method: as §2, with “×100. […]” for “×100.”

Hep G2 cells = assay: MTT cell proliferation assay, Hep G2; assay type: cell-based; conditions: Homo sapiens, HepG2, incubation approximately 64-72 hours
Method: as §2
The M24 cell line is derived from human melanoma cells. The U2OS cell line is a human osteosarcoma cell line expressing wild type p53 and Rb, but lacking p16. The MM1S cell line is a multiple myeloma cell line; the parent cell line, MM.1, was established from peripheral blood of a multiple myeloma patient who had become resistant to steroid-based therapy. The RPMI8226 cell line is derived from human B lymphocyte cells. NHDF cells are normal human dermal fibroblast cells. The MRC-5 cell line is derived from normal lung tissue of a fetus. The LN18 cell line is a human malignant glioma cell line. The DU-145 cell line is a human prostate cancer cell line. A549 cells are human adenocarcinomic human alveolar basal epithelial cells. The MOLT4 cell line is a human acute lymphoblastic leukemia cell line. The THP1 cell line is a human leukemic monocytic cell line derived from peripheral blood. The OCIAML5 cell line is a human acute myeloid leukemia cell line. The MDA-MB-231 cell line is a human breast adenocarcinoma cell line. The MDA-MB-468 cell line is a human breast carcinoma cell line. HL-60 cells are human promyelocytic leukemia cells. Hep G2 cells are human hepatocellular carcinoma cells. HEP 3B cells are human hepatocellular carcinoma cells. The DLD-1 cell line is a colorectal adenocarcinoma cell line. The HCT-15 cell line is a human colon carcinoma cell line. The Colo-205 cell line is derived from a human adenocarcinoma of the colon. […]

[2] = test system: PAK4 interactors and downstream proteins; assay: Immunoblots of PAK4 interactors and downstream proteins in U2OS cells; assay type: cell-based, human; conditions: 0.5 μM or 5 μM, 72 hours
Method: Immunoblots were used to measure the effects of exemplary compounds on protein steady-state levels and phophorylation of PAK4 interactor and downstream proteins. Specifically, U2OS (osteosarcoma) cells were split and plated on day 1. After overnight attachment to the tissue culture plate, cells were treated with either DMSO (0), 37 nM, 111 nM, 333 nM, 1 μM, or 3 μM Compound 246 for 72 hours. Cells were collected, washed and lysed in RIPA buffer. After obtaining the protein concentration by BCA assay, lysates were boiled in loading buffer and run on SDS-PAGE. The gels were transferred to nitrocellulose membranes and blotted with antibodies raised against phosphor-PAK4, PAK4, phophos-beta-catenin, beta-catenin, GEF-H1, phospho-Akt, Akt, phospho-ERK1/2, ERK1/2, phospho-cofilin, cofilin, phospho-histone H3, histone H3, cyclin D1, Mcl-1, Bcl-2, p21, survivin, caspase 8, caspase 3, PARP, and beta-actin (loading control).
In another experiment, U2OS (osteosarcoma) cells were split and plated on day 1. After overnight attachment to the tissue culture plate, cells were treated with DMSO (Ct), 0.5 μM, or 5 μM of Compound 124, 369, 226, 246, or 907 for 72 hours. Cells were collected, washed and lysed in RIPA buffer. After obtaining the protein concentration by BCA assay, lysates were boiled in loading buffer and run on SDS-PAGE. The gels were transferred to nitrocellulose membranes and blotted with antibodies raised against phophos-beta-catenin, cyclin D1, PAK4, phospho-cofilin, and beta-actin (loading control).

MRC-5 cell line = assay: MTT cell proliferation assay, MRC-5; assay type: cell-based; conditions: Homo sapiens, MRC5, incubation approximately 64-72 hours
Method: as §2, with “×100. […]” for “×100.”

Question: Which IC50 (3T3 cells) does the source give for CC(=O)c1ccc(-c2cc(Cl)c3c(c2)CC(CNC(=O)/C=C/c2ccc(N)nc2)O3)s1 (stereo not drawn) [Compound 116, (E)-N-((5-(5-acetylthiophen-2-yl)-7-chloro-2,3-dihydrobenzofuran-2-yl)methyl)-3-(6-aminopyridin-3-yl)acrylamide] here?
Answer: Its IC50 is 5 to 30 µM.

Question: What about the mean tumor volume [1] of the same compound?
Answer: The mean tumor volume was “reduced”.

Question: And the IC50 (MS751 cells)?
Answer: Its IC50 is 0.1 to 5 µM.

Question: And the IC50 (Z138 cells)?
Answer: The IC50 was 0.1 to 5 µM.

Question: CC(O)c1ccc(-c2cc(Cl)c3c(c2)CC(CNC(=O)/C=C/c2cccnc2)O3)s1 (stereo not drawn) [Compound 124] was tested. Which IC50 (3T3 cells) did it give?
Answer: Its IC50 is 0.1 to 5 µM.

Question: And the IC50 (MM1S cell line)?
Answer: Its IC50 is < 0.1 µM.

Question: What about the IC50 (LoVo cell line) of the same compound?
Answer: Its IC50 is 0.1 to 5 µM.

Question: What about the IC50 (DLD-1 cell line) of the same compound?
Answer: The IC50 was 0.1 to 5 µM.

Question: And the IC50 (MDA-MB-468 cell line)?
Answer: Its IC50 is 0.1 to 5 µM.

Question: And the IC50 (M24 cell line)?
Answer: Its IC50 is 0.1 to 5 µM.

Question: What about the IC50 (HCT-15 cell line) of the same compound?
Answer: The IC50 was 0.1 to 5 µM.

Question: What about the IC50 (RPMI8226 cell line) of the same compound?
Answer: Its IC50 is 0.1 to 5 µM.

Question: And the IC50 (MDA-MB-231 cell line)?
Answer: Its IC50 is 0.1 to 5 µM.

Question: What about the IC50 (HEP 3B cells) of the same compound?
Answer: Its IC50 is 0.1 to 5 µM.

Question: What about the IC50 (DU-145 cell line) of the same compound?
Answer: The IC50 was 0.1 to 5 µM.

Question: And the IC50 (Colo-205 cell line)?
Answer: Its IC50 is 0.1 to 5 µM.

Question: What about the IC50 (U2OS cell line) of the same compound?
Answer: Its IC50 is < 0.1 µM.

Question: And the IC50 (NHDF cells)?
Answer: Its IC50 is 0.1 to 5 µM.

Question: And the IC50 (MS751 cells)?
Answer: Its IC50 is < 0.1 µM.

Question: And the IC50 (Hep G2 cells)?
Answer: Its IC50 is 0.1 to 5 µM.

Question: And the IC50 (Z138 cells)?
Answer: The IC50 was < 0.1 µM.

Question: What about the PAK4 total protein [2] of the same compound?
Answer: The PAK4 total protein was “decrease”.

Question: And the “phosphorylation of PAK4 signaling proteins beta-catenin and cofilin” value [2]?
Answer: Its value is “decreases in phosphorylation”.

Question: What about the IC50 (MRC-5 cell line) of the same compound?
Answer: The IC50 was < 0.1 µM.
